Experimental data published in PubChem BioAssay AID328 (DTP/NCI, 2004).
Several values for one entry are separate records, joined by “and”; a condition that tells them apart may be missing. Equal entries are not always repeated. Toxic doses and inconclusive results are not listed. The calls were made as follows: active = survival T/C of 150% or more; inactive = T/C below 125% in these data.

System: BDF1 mice, P388 leukemia ip, median survival T/C
Assay: NCI In Vivo Anticancer Drug Screen. Data for tumor model P388 Leukemia (intraperitoneal) in B6D2F1 (BDF1) mice
Details: endpoint: median survival time, higher = longer survival
Procedure, shortened: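 T/C = treated-group survival ÷ vehicle-control survival; tumour transplanted into mice before dosing.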

[1] = dose: 25.0 mg/kg/injection, schedule: Q01DX009 (ip), vehicle: other
[2] = dose: 50.0 mg/kg/injection, schedule: Q01DX009 (ip), vehicle: other
[3] = dose: 200.0 mg/kg/injection, schedule: Q01DX009 (ip), vehicle: other
[4] = dose: 100.0 mg/kg/injection, schedule: Q04DX003 (ip), vehicle: Klucel (hydroxypropylcellulose) (HPC)
[5] = dose: 200.0 mg/kg/injection, schedule: Q04DX003 (ip), vehicle: Klucel (hydroxypropylcellulose) (HPC)
[6] = dose: 400.0 mg/kg/injection, schedule: Q04DX003 (ip), vehicle: Klucel (hydroxypropylcellulose) (HPC)
[7] = dose: 100.0 mg/kg/injection, schedule: Q01DX009 (ip), vehicle: Klucel (hydroxypropylcellulose) (HPC)
[8] = dose: 200.0 mg/kg/injection, schedule: Q01DX009 (ip), vehicle: Klucel (hydroxypropylcellulose) (HPC)
[9] = dose: 6.25 mg/kg/injection, schedule: Q01DX009 (ip), vehicle: Klucel (hydroxypropylcellulose) (HPC)
[10] = dose: 12.5 mg/kg/injection, schedule: Q01DX009 (ip), vehicle: Klucel (hydroxypropylcellulose) (HPC)
[11] = dose: 25.0 mg/kg/injection, schedule: Q01DX009 (ip), vehicle: Klucel (hydroxypropylcellulose) (HPC)
[12] = dose: 50.0 mg/kg/injection, schedule: Q01DX009 (ip), vehicle: saline with Tween-80
[13] = dose: 100.0 mg/kg/injection, schedule: Q01DX009 (ip), vehicle: saline with Tween-80
[14] = dose: 200.0 mg/kg/injection, schedule: Q01DX009 (ip), vehicle: saline with Tween-80
[15] = dose: 100.0 mg/kg/injection, schedule: Q04DX003 (ip), vehicle: saline with Tween-80
[16] = dose: 200.0 mg/kg/injection, schedule: Q04DX003 (ip), vehicle: saline with Tween-80
[17] = dose: 400.0 mg/kg/injection, schedule: Q04DX003 (ip), vehicle: saline with Tween-80

Measured: T/C

COc1ccc(/C(C#N)=C\c2ccnc3ccccc23)cc1
inactive: dose: 12.5 mg/kg/injection, schedule: Q01DX009 (ip), vehicle: other 89 % of control | [1] 93 % of control | [2] 90 % of control | [3] 100 % of control

O=C(CN1CCOCC1)Nc1nc(-c2ccc(Cl)cc2)cs1
inactive: dose: 50.0 mg/kg/injection, schedule: Q01DX005 (ip), vehicle: saline with Tween-80 110 % of control | dose: 100.0 mg/kg/injection, schedule: Q01DX005 (ip), vehicle: saline with Tween-80 91 % of control

OCC1CSCN1 (stereo unspecified)
inactive: dose: 50.0 mg/kg/injection, schedule: Q04DX002 (ip), vehicle: saline 100 % of control | dose: 100.0 mg/kg/injection, schedule: Q04DX002 (ip), vehicle: saline 103 % of control | dose: 200.0 mg/kg/injection, schedule: Q04DX002 (ip), vehicle: saline 98 % of control

O=C(c1ccccc1)C(Br)c1ccc([N+](=O)[O-])cc1 (stereo unspecified)
inactive: [4] 100 % of control | [5] 90 % of control | [6] 100 % of control

C#CCOC(=O)NCCC
inactive: dose: 50.0 mg/kg/injection, schedule: Q01DX009 (ip), vehicle: Klucel (hydroxypropylcellulose) (HPC) 110 % of control | dose: 50.0 mg/kg/injection, schedule: Q04DX003 (ip), vehicle: Klucel (hydroxypropylcellulose) (HPC) 95 % of control | [7] 105 % of control | [4] 104 % of control | [8] 115 % of control | [5] 104 % of control

O=C(C=P(c1ccccc1)(c1ccccc1)c1ccccc1)CCl
inactive: [9] 91 % of control | dose: 6.25 mg/kg/injection, schedule: Q04DX003 (ip), vehicle: Klucel (hydroxypropylcellulose) (HPC) 100 % of control | [10] 91 % of control | dose: 12.5 mg/kg/injection, schedule: Q04DX003 (ip), vehicle: Klucel (hydroxypropylcellulose) (HPC) 100 % of control | [11] 100 % of control | dose: 25.0 mg/kg/injection, schedule: Q04DX003 (ip), vehicle: Klucel (hydroxypropylcellulose) (HPC) 100 % of control

CC(C)CCN(CCC(C)C)CC(O)c1cc(-c2ccc(C(F)(F)F)cc2)nc(-c2ccc(C(F)(F)F)cc2)c1 (stereo unspecified)
inactive: [12] 113 % of control | [13] 106 % of control | [14] 113 % of control

C[C@]12CC[C@@H]3c4ccc(O)cc4CC[C@H]3[C@@H]1CCC(=O)O2
inactive: [7] 91 % of control | [4] 104 % of control | [8] 91 % of control | [5] 90 % of control | [6] 100 % of control

CCN(CC)CC(C)Nc1ccc([N+](=O)[O-])c2sc3ccccc3c(=O)c12 (stereo unspecified)
inactive: dose: 300.0 mg/kg/injection, schedule: Q04DX003 (ip), vehicle: saline with Tween-80 109 % of control and 118 % of control | [17] 115 % of control
active: [15] 200 % of control | dose: 132.0 mg/kg/injection, schedule: Q04DX003 (ip), vehicle: saline with Tween-80 209 % of control and 222 % of control | [16] 272 % of control and 300 % of control and 195 % of control

O=C(c1ccccc1)C(SSC(C(=O)c1ccccc1)C(=O)c1ccccc1)C(=O)c1ccccc1
inactive: [12] 100 % of control | [13] 112 % of control | [14] 103 % of control

CC1(C)CC2(C)OC2C2(C1)N=NC(=O)O2 (stereo unspecified)
inactive: [12] 98 % of control | [13] 107 % of control | [14] 121 % of control

O=C1C(NCCO)=C(N2CC2)C(=O)C(NCCO)=C1N1CC1
active: dose: 0.37 mg/kg/injection, schedule: Q01DX009 (ip), vehicle: saline 275 % of control and 203 % of control | dose: 0.75 mg/kg/injection, schedule: Q01DX009 (ip), vehicle: saline 194 % of control
248 % of control and 93 % of control: dose: 0.18 mg/kg/injection, schedule: Q01DX009 (ip), vehicle: saline

COc1cccc(/C(C)=N\Nc2ccc([N+](=O)[O-])cc2[N+](=O)[O-])c1OC
inactive: [12] 94 % of control | dose: 50.0 mg/kg/injection, schedule: Q04DX003 (ip), vehicle: saline with Tween-80 100 % of control | [13] 100 % of control | [15] 102 % of control | [14] 91 % of control | [16] 102 % of control | dose: 400.0 mg/kg/injection, schedule: Q01DX009 (ip), vehicle: saline with Tween-80 94 % of control | [17] 97 % of control

O=C(Nc1nncs1)c1cnccn1
inactive: dose: 50.0 mg/kg/injection, schedule: Q04DX002 (ip), vehicle: saline with Tween-80 98 % of control | dose: 100.0 mg/kg/injection, schedule: Q04DX002 (ip), vehicle: saline with Tween-80 97 % of control | dose: 200.0 mg/kg/injection, schedule: Q04DX002 (ip), vehicle: saline with Tween-80 104 % of control
active: dose: 400.0 mg/kg/injection, schedule: Q04DX002 (ip), vehicle: saline with Tween-80 168 % of control

COC1NC(=O)NC(=O)C1=[N+]=[N-] (stereo unspecified)
active: dose: 3.3 mg/kg/injection, schedule: Q01DX009 (ip), vehicle: saline with Tween-80 170 % of control | dose: 5.0 mg/kg/injection, schedule: Q01DX009 (ip), vehicle: saline with Tween-80 175 % of control

CC12CC3(O)CCC1CCC2C(=O)C3 (stereo unspecified)
inactive: dose: 100.0 mg/kg/injection, schedule: Q04DX003 (ip), vehicle: saline 118 % of control | dose: 200.0 mg/kg/injection, schedule: Q04DX003 (ip), vehicle: saline 109 % of control | dose: 400.0 mg/kg/injection, schedule: Q04DX003 (ip), vehicle: saline 122 % of control

CC[n+]1c(-c2ccccc2)c2cc(N)ccc2c2ccc(N)cc21 (tested in a mixture with another compound)
inactive: [1] 112 % of control | [2] 112 % of control

CC(=O)OC1=CCC(C(C)(C)C)CC1 (stereo unspecified)
inactive: dose: 5.15 mg/kg/injection, schedule: Q04DX003 (ip), vehicle: saline 100 % of control | [9] 100 % of control | dose: 10.31 mg/kg/injection, schedule: Q04DX003 (ip), vehicle: saline 90 % of control | [10] 100 % of control | dose: 20.62 mg/kg/injection, schedule: Q04DX003 (ip), vehicle: saline 90 % of control | [11] 100 % of control | dose: 35.0 mg/kg/injection, schedule: Q01DX009 (ip), vehicle: Klucel (hydroxypropylcellulose) (HPC) 91 % of control and 100 % of control | dose: 41.25 mg/kg/injection, schedule: Q04DX003 (ip), vehicle: Klucel (hydroxypropylcellulose) (HPC) 87 % of control | dose: 55.0 mg/kg/injection, schedule: Q01DX009 (ip), vehicle: Klucel (hydroxypropylcellulose) (HPC) 100 % of control | dose: 80.0 mg/kg/injection, schedule: Q01DX009 (ip), vehicle: Klucel (hydroxypropylcellulose) (HPC) 87 % of control

CC(=O)c1cccc(OCc2ccccc2)c1
inactive: dose: 100.0 mg/kg/injection, schedule: Q01DX009 (ip), vehicle: other 118 % of control | dose: 100.0 mg/kg/injection, schedule: Q04DX003 (ip), vehicle: other 100 % of control | [3] 95 % of control | dose: 200.0 mg/kg/injection, schedule: Q04DX003 (ip), vehicle: other 95 % of control | dose: 400.0 mg/kg/injection, schedule: Q01DX009 (ip), vehicle: other 109 % of control | dose: 400.0 mg/kg/injection, schedule: Q04DX003 (ip), vehicle: other 116 % of control
